“Also recorded” adds a separate entry of the source. Read-outs that look alike come from different tables or passages of the source.
Tests used:
Foxn1 in C9 (cTEC) cells = experiment: Foxn1 expression by qPCR in C9 cells; assay type: cell-based, mouse
Description: (§1) FIGS. 7A, 7B. […] Graphs represent mean±SEM, each dot represents a biologically independent observation (n=3 independent experiments). *, p<0.05; **, p<0.01; ***p<0.001.
(§2) FIGS. 18A-18G. Thymuses were harvested at d0, d1, d2, and d3 after TBI (550 cGy) and (18A) mitochondrial membrane potential, (18B) Reactive oxygen species (ROS) levels, and (18C) glutathione levels were measured in DP thymocytes and cTECs (n=4-7 mice from 1-2 experiments). (18D) Foxn1 expression in FACs-purified cTECs at d0, d4, and d7 after TBI; (18E) Intracellular Ca2+ levels were measured on whole thymus harvested at d0, d2, d4, and d7 post SL-TBI. (18F, 18G) Foxn1 expression levels were measured by qPCR in (18F) C9, and (18G) TE71 cells after treatment with Tunicamycin (5 ug/ml) or Thapsigargan (1 μg/ml). Graphs represent mean+/−SD.
FIGS. 19A, 19B. (19A) C9s were treated with (19A) ATP and P2X7 antagonist or (19B) P2Y2 agonist or antagonist and FOXN1 expression was assessed by qPCR after 20 h. Graphs represent mean+/−SEM.
(§3) Cell cultures. exEC were generated as previously described (Seandel et al., Proc Natl Acad Sci USA. 2008, 105(49):19288-19293). Cells were cultured in presence of ultrapure Zn sulfate monohydrate purchased from Alfa Aesar (Haverhill, Mass. #1113809) or sodium pyrythione (Sigma Aldrich, St. Louis, Mo. #H3261-1G). TC-G 1008 was used in cell cultures at a final concentration of 25 μM. Silencing of the zinc receptor Gpr39 was performed by electroporation using Nucleofector electroporation kit (VPI-1001, Lonza; Program M-003, Nucleofector 2b, Lonza), and the GPR39 siRNA Silencer Select (Thermo, Waltham, Mass.). Mouse C9 (cTEC) and TE-71 (mTEC) cells were kindly provided by A. Farr, University of Washington.
PCR and Microarray. Reverse transcription-PCR was performed with iScript Clear gDNA cDNA synthesis kit (Bio Rad, Hercules, Calif.) on CFX96 (Bio Rad, Hercules, Calif.) with iTaq Universal SYBR Green (Bio Rad). Relative amounts of mRNA were calculated by the comparative AC(t) method or as relative expression. SYBR Green gene expression assays for qPCR, including Bmp4 (Mm00432087_m1), Foxn1 (Mm00433948_m1), beta-actin, Gpr39, Top1 were all purchased from Life Technologies (Carlsbad, Calif.) and Bio Rad (Hercules, Calif.). b-actin: synthesized by IDT, F: 5′-[…]-3′ (SEQ ID NO: 6), R: 5′-[…]-3′ (SEQ ID NO: 7). Top1: synthesized by IDT, sequences provided by PrimerBank, PrimerBank ID 6678399a1. Bmp4: Biorad qMmuCED0046239. Foxn1: Biorad qMmuCED0044924. Microarray data from CD45^− cells was analyzed on day 0, 4 and 7 as previously described (Wertheimer et al., Science Immunology. 2018, 3(19)) (GSE106982) and differential gene expression of Gpr39 was calculated.

[1] = system: C57BL/6 mice given sublethal TBI; experiment: Thymic regeneration after sublethal total body irradiation (SL-TBI, 550 cGy); assay type: in vivo, mouse; details: for thymic regeneration (thymus cellularity): day 14
Text: FIGS. 4A-4G. […] (4A, 4B) 6-8 week-old female C57BL/6 mice were fed a normal or ZD diet for 21 days at which point mice were given a sublethal dose of total body irradiation (TBI, 550 cGy). (4A) Total thymic cellularity at days 7 and 14 after TBI (n=10/treatment/timepoint across two independent experiments). (4B) Total number of CD45-EpCAM^+MHCII^+UEA1^loLy51^hi (cTECs) and CD45^− EpCAM^+MHCII^+UEA1^hi Ly51^lo (mTECs) at days 7 and 14 after TBI (n=10/treatment/timepoint across two independent experiments). (4C) 6-12 week-old female BALB.B mice were fed with normal or ZD diet for 21 days, at which point mice were given a lethal dose of TBI (900cGy) and 10×10^6 T cell-depleted bone marrow (BM) cells from 6-8 week-old C57BL/6. One cohort also received 2×10^6 T cells to induce graft versus host disease (GVHD); thymic cellularity was quantified on day 14 after allogeneic hematopoietic stem cell transplant (allo-HCT, n=5-6/group). (4D) 6-8 week-old female C57BL/6 mice were fed with normal or ZD diet for 21 days at which point mice were given 550 cGy TBI and total thymus cellularity quantified on day 14. […] (4E) Total thymic cellularity. (4F) Total number of cTECs and mTECs. (4G) Total number of Ki-67+ thymic endothelial cells (TECs). […]

[2] = system: Foxn1 in TE-71 (mTEC) cells; experiment: Foxn1 expression by qPCR in TE-71 cells; assay type: cell-based, mouse
Description: as §2
PCR and Microarray. […] Bmp4: Biorad qMmuCED0046239. Foxn1: Biorad qMmuCED0044924.

[3] = system: mice given TCD allo-HCT from RAG2-GFP donors; details: ZnSO4 in drinking water, peripheral blood and spleen after HCT, day 53
Description: FIGS. 12A-12D. […] (12A). […] (12B) Splenic T cells were analyzed for GFP expression on day 53 (n=4-5/group).

Bmp4 in exECs [4] = experiment: BMP4 protein by ELISA in exECs; assay type: cell-based, mouse
Description: FIGS. 10A-10F. G-protein coupled receptor 39 (GPR39) expressed by thymic endothelial cells is the central mediator of Zn-centered regeneration. […] Bmp4 expression was measured by qPCR (n=6 combined from two independent experiments). (10B) GPR39 expression across subsets in the thymus by flow cytometry at baseline. […] (10C) Expression of GPR39 on cTECs, mTECs, ECs and fibroblasts at days 0, 4, and 7 after TBI. […] BM P4 was measured by ELISA.

BMP4 = system: BMP4
Text: (§4) FIGS. 8A-8F. […] (8A) 6-8 week-old female C57BL/6 mice were fed a normal or ZD diet for 21 days at which point mice were given 550 cGy TBI. […] Levels of BMP4 were quantified by enzyme-linked immunoassay (ELISA) at day 10 after TBI (n=5-10/group from one independent experiment). […] Mice were maintained on Zn-supplemented drinking water for the duration of the study. (8B) BMP4 levels measured by ELISA at day 10 (n=9/group combined from three independent experiments). (8C) Endothelial cells (ECs) were fluorescence-activated cell sorting (FACS) purified at day 7 and Bmp4 expression was measured by qPCR (n=6/group combined from two independent experiments). […] Total thymus cellularity was quantified at day 10 after TBI (n=5/group from one independent experiment).
(§5) ELISA and Western Blot. Cell culture or tissue lysates were prepared in RIPA buffer (Thermo, Waltham, Mass.) as previously described (Wertheimer et al., Science Immunology. 2018, 3(19)) and normalized by BCA assay (Thermo, Waltham, Mass.). BMP4 levels were quantified by ELISA (LSBio, Seattle, Wash.) and read on a Spark 10M plate reader (Tecan, Switzerland). Cortisol levels were measured with ELISA on peripheral blood (R&D systems, Minneapolis, Minn.).

Bmp4 in exECs [5] = experiment: Bmp4 expression by qPCR in exECs; assay type: cell-based, mouse; details: ZnSO4 50 and 100 μM, 24 hours
[6] = system: Bmp4 in endothelial cells (ECs); details: 300 mg/kg/day ZnSO4 21 days before TBI, ECs sorted at day 7
Text: as §4
PCR and Microarray. Reverse transcription-PCR was performed with iScript Clear gDNA cDNA synthesis kit (Bio Rad, Hercules, Calif.) on CFX96 (Bio Rad, Hercules, Calif.) with iTaq Universal SYBR Green (Bio Rad). Relative amounts of mRNA were calculated by the comparative AC(t) method or as relative expression. […] Microarray data from CD45^− cells was analyzed on day 0, 4 and 7 as previously described (Wertheimer et al., Science Immunology. 2018, 3(19)) (GSE106982) and differential gene expression of Gpr39 was calculated.

C9 (cTEC) cells = details: graded doses of ZnSO4, 24 h
Description: as §1, §3, §5

TE-71 (mTEC) cells = details: TE-71 cells, graded doses of ZnSO4, 24 h
Description: as §1, §3, §5

[7] = system: lineage-negative bone marrow (BM) co-cultured with OP9-DL1 cells; details: ZnSO4 10 μM added from day 0, read at day 30, versus control
Description: Concatenated flow cytometry plots displaying CD4 and CD8 expression at day 30 (n=5 independent experiments).
To confirm the importance of Zn on T cell maturation, lineage-negative bone marrow (BM) isolated from C57BL/6 mice were co-cultured on the OP9-DLL1 system, which is able to support T cell development in vitro (Schmitt et al., Nat Immunol. 2004, 5(4):410-417; and Holmes et al., Cold Spring Harb Protoc. 2009, 2009(2):pdb prot5156).
OP9-DL1 cells were kindly provided by J. C. Zuniga-Pflucker, University of Toronto and cultured as previously described (Holmes et al., Cold Spring Harb Protoc. 2009, 2009(2):pdb prot5156) using lineage-negative BM (using a lineage depletion kit, Miltenyi Biotech, Germany). Flt-3L and IL-7 were purchased from Peprotech (Rocky Hill, N.J.).

ERK1/2 = details: exECs stimulated with Zn
Description: Flow cytometry, multidimensional analyses, and FACS sorting. For flow cytometry and cell sorting, surface antibodies against CD45 (30-F11), CD31 (390 or MEC13.3), CD90.2 (30-H12), TER-119 (TER-119), CD4 (RM4-5 or GK1.5), CD8 (53-6.7), TCRβ (H57-597), CD3 (145-2C11), CD44 (IM7), CD25 (PC 61.5), CD62L (MEL14), MHC-II IA/IE (M5/114.15.2), EpCAM (G8.8), Ly51 (6C3), CD11c (HL3), IL-7Ra (A7R34), CCR6 (140706), CD45.1 (A20), CD45.2 (104), ki-67 (16A8), and PDGFRa (APAS) were purchased from BD Biosciences (Franklin Lakes, N.J.), BioLegend (San Diego, Calif.) or eBioscience (San Diego, Calif.). Ulex europaeus agglutinin 1 (UEA-1), conjugated to FITC or Biotin, was purchased from Vector Laboratories (Burlingame, Calif.). GPR39 conjugated to FITC was purchased from Signalway Antibody (College Park, Md.). Red blood cell lysis was performed with ACK buffer (Thermo Scientific, Waltham, Mass.). Flow cytometry was performed on a Fortessa X50 (BD Biosciences, Franklin Lakes, N.J.) and cells were sorted on an Aria II (BD Biosciences) using FACSDiva (BD Biosciences, Franklin Lakes, N.J.). For intracellular cytokine or phosphoprotein analysis, cells were fixed and permeabilized using Fix Buffer I and Phospho-Perm Buffer III from BD Bioscience (Franklin Lakes, N.J.). Fluozin-3 AM was purchased from Thermo Fisher (Waltham, Mass.). Analysis was performed by FlowJo (Treestar Software, Ashland, Oreg.).

[8] = 300 mg/kg/day ZnSO4 in drinking water for 21 days, Fluozin-3 and ICP-MS
Description: FIGS. 9A-9G. […] (9A, 9B) 6-8 week-old female C57BL/6 mice were given 550 cGy TBI and levels of Zn were measured by inductively coupled plasma mass spectrometry (ICP-MS). (9A) Total thymic amounts of Zn from both intracellular and extracellular fractions of thymus (n=6/timepoint). (9B) Extracellular Zn was measured only in thymic supernatants and the ratio of extracellular to total thymic Zn was calculated (n=6/timepoint). […] Thymocytes were isolated either before or 48 hours after TBI and co-cultured with exECs. Bmp4 expression was measured by qPCR at 24 hours (n=3-4/group). […] Thymus cellularity was measured at day 28 after TBI (n=4-5/group). (9E) 6-8 week-old female C57BL16 mice were fed a normal or ZD diet for 21 days after which thymocytes were isolated by CD90+ magnetic separation. Intracellular Zn levels were measured by staining with Fluozin-3 and assessed by flow cytometry (n=5/group across two independent experiments).

Compound: O=c1ccn([C@@H]2O[C@H](COP(=O)([O-])OP(=O)([O-])OP(=O)([O-])OP(=O)([O-])Oc3ccccc3)[C@@H](O)[C@H]2O)c(=O)[nH]1.[Na+].[Na+].[Na+].[Na+] [MRS 2768, tetrasodium; [[(2R,3S,4R,5R)-5-(2,4-dioxopyrimidin-1-yl)-3,4-dihydroxyoxolan-2-yl]methoxy-oxidophosphoryl] [oxido-[oxido(phenoxy)phosphoryl]oxyphosphoryl] phosphate]
- Foxn1 expression (Foxn1 in C9 (cTEC) cells): increase in Foxn1 expression
- thymic regeneration (thymus cellularity) ([1]; MRS 2768 5 mg/kg IP at day 3 after 550 cGy TBI, 5 mg/kg): superior thymic regeneration; also recorded: enhancing thymus cellularity
- cTEC numbers ([1]; MRS 2768 5 mg/kg, d13 following TBI, 5 mg/kg): increased cTEC numbers; also recorded: expanding cTECs

Compound: C/C=C(/C)C(=O)O[C@H]1C(C)=C2[C@H]([C@@H]1OC(=O)CCCCCCC)[C@@](C)(OC(C)=O)C[C@H](OC(=O)CCC)[C@@]1(O)[C@H]2OC(=O)[C@@]1(C)O [thapsigargan]
- effect on tunicamycin-induced Foxn1 expression ([2]; TE71 cells, Thapsigargan 1 μg/ml): reversed
- effect on tunicamycin-induced Foxn1 expression (Foxn1 in C9 (cTEC) cells; C9 cells, Thapsigargan 1 μg/ml): reversed

Compound: O=S(=O)([O-])[O-].[Zn+2] [ZnSO4, zinc sulphate]
- GFP+ CD4+ and CD8+ lymphocytes (recent thymic emigrants) [3]: higher levels of GFP+CD4+ and CD8+ lymphocytes
- BMP4 protein (Bmp4 in exECs [4]; ZnSO4, 48 hours): confirmed at the protein level
- BMP4 levels in the thymus (BMP4; 300 mg/kg/day ZnSO4 21 days before TBI without prior ZD, day 10): increased levels of BMP4
- BMP4 levels in the thymus (BMP4; ZD diet 21 days, 550 cGy TBI, 300 mg/kg/day ZnSO4 in drinking water from day 0, day 10): restored BMP4 levels
- transcription of Bmp4 (Bmp4 in exECs [5]): dose-dependent increase
- Bmp4 expression in purified ECs [6]: increased expression of Bmp4
- TEC proliferation (C9 (cTEC) cells): did not show any direct effect
- TEC proliferation (TE-71 (mTEC) cells): did not show any direct effect
- production of DP (CD4+CD8+) cells [7]: more robust production of DP
- phosphorylation of ERK1/2 (ERK1/2): led to phosphorylation of ERK1/2
- intracellular Zn in thymocytes [8]: significantly increased levels of intracellular Zn
- Foxn1 expression ([2]; TE-71 cells, 100 μM ZnSO4, 24 h): did not show any direct effect
- Foxn1 expression (Foxn1 in C9 (cTEC) cells; C9 cells, 100 μM ZnSO4, 24 h): did not show any direct effect

Compound: tunicamycin
- Foxn1 expression ([2]; TE71 cells, Tunicamycin 5 ug/ml): induced Foxn1 expression
- Foxn1 expression (Foxn1 in C9 (cTEC) cells; C9 cells, Tunicamycin 5 ug/ml): induced Foxn1 expression

Compound: Cc1ccc2c(c1)C=Cc1cc(C)ccc1C2c1cn(Cc2ccc(C(=O)Nc3nn[nH]n3)o2)c(=O)[nH]c1=S [AR-C 1182925XX]
- effect on P2Y2 agonist-induced Foxn1 expression (Foxn1 in C9 (cTEC) cells; C9 cells, P2Y2 antagonist, 20 h): reversed

Compound: Nc1ncnc2c1ncn2[C@@H]1O[C@H](COP(=O)(O)OP(=O)(O)OP(=O)(O)O)[C@@H](O)[C@H]1O [ATP]
- Foxn1 expression (Foxn1 in C9 (cTEC) cells; C9 cells, ATP, 20 h): potent inducer of FOXN1
- thymic regeneration (thymus cellularity) ([1]; ATP by intraperitoneal injection at d3 after SL-TBI (legend: 5 mg/kg bzATP)): superior thymic regeneration; also recorded: enhancing thymus cellularity

Compound: Nc1[nH]nc2nnc(-c3c(-c4ccccc4)nn4ccccc34)cc12 [FR180204]
- BMP4 production (Bmp4 in exECs [4]; ERK inhibitor FR180204 prior to ZnSO4 (100 μM), 24 hours): BMP4 production was abrogated

Reference: US20230263800A1, “COMPOSITIONS AND METHODS TO PROMOTE THYMIC FUNCTION” (Fred Hutchinson Cancer Center, priority 2020, published 2023)
